Legend:
[1] = biological target: Nicotinic Acetylcholine α4β2 Receptor (UniProt P09483+P12390); test: Binding assay for human or rat nicotinic acetylcholine α4β2 receptor ([3H]Cytisine displacement); settings: [3H]Cytisine 2.5 nM; rat brain frontal cortex or recombinant human receptor in CHO cells (not specified which); read-out: Ki
Procedure: Binding Assay for Human or Rat Nicotinic Acetylcholine α4β2 Receptor
• Receptor source: Rat brain frontal cortex or recombinant human cDNA expressed in CHO cells • Radioligand: [^3H]Cytisine 15-40 Ci/mmole • Final ligand concentration—[2.5 nM] • Non-specific determinant: Epibatidine—[0.1 μM] • Reference compound: Epibatidine • Positive control: Epibatidine Incubation Conditions:
Increasing concentrations of test compounds or standard were incubated with membrane receptors and radioligand in 120 mM NaCl, 2.5 mM KCl, 1 mM CaCl2, 1 mM MgCl2 and 50 mM TRIS-HCl (pH 7.4) for 60 minutes at room temperature. The reaction was terminated by rapid vacuum filtration onto the glass fiber filters. Radioactivity trapped onto the filters was determined and compared to the control values in order to ascertain any interactions of the test compound(s) with either cloned human or rat receptor binding site.
Literature Reference: Bunnelle W. H., Daanen J. F., Ryther K. B., Schrimpf M. R., Dart M. J., Gelain A., Meyer M. D., Frost J. M., Anderson D. J., Buckley M., Curzon P., Cao Y-J., Puttfarcken P., Searle X., Ji J., Putman C. B., Surowy C., Toma L. and Barlocco D. Structure-Activity Studies and Analgesic Efficacy of N-(3-Pyridinyl)-Bridged Bicyclic Diamines, Exceptionally Potent Agonists at Nicotinic Acetylcholine Receptors. J. Med. Chem. 2007, 50, […].

[2] = Rodent pharmacokinetic study; type: in vivo; settings: Wistar, in vivo, Wister rat/Male; for AUC(0-t) / Cmax / Tmax / half-life: 5 mg/kg
Procedure: Rodent Pharmacokinetic Study
Three to five animals were housed in each cage. Animals were kept fasted over night and maintained on a 12 hours light/dark cycle. Three rats were dosed NCE orally (15 or 5 mg/kg) and intravenously (5 mg/kg) on day 0 and day 2
At each time point blood was collected by jugular vein. Plasma was stored frozen at −20° C. until analysis. The concentrations of the NCE compound in plasma were determined using LC-MS/MS method. Schedule time points: Pre dose 0.25, 0.5, 1, 1.5, 2, 3, 4, 6, 8, 10, 12 and 24 hours after dosing (n=3).
Pharmacokinetic parameters Cmax, Tmax, AUCt, T1/2 and Bioavailability were calculated by non-compartmental model using software WinNonlin version 5.0.1.

Male Wister rats [3] = test: Object recognition task model; type: in vivo, rat; settings: 0.1 mg/kg, p.o.
Procedure: Object Recognition Task Model
The cognition-enhancing properties of compounds of this invention were estimated using a model of animal cognition: the object recognition task model.
Male Wister rats (230-280 grams) obtained from N. I. N. (National Institute of Nutrition, Hyderabad, India) was used as experimental animals. Four animals were housed in each cage. […] Also the rats were habituated to individual arenas for 1 hour in the absence of any objects.
One group of 12 rats received vehicle (1 mL/Kg) orally and another set of animals received compound of the formula (I) either orally or i.p., before one hour of the familiar (T1) and choice trial (T2).
The experiment was carried out in a 50×50×50 cm open field made up of acrylic. In the familiarization phase, (T1), the rats were placed individually in the open field for 3 minutes, in which two identical objects (plastic bottles, 12.5 cm height×5.5 cm diameter) covered in yellow masking tape alone (a1 and a2) were positioned in two adjacent corners, 10 cm. from the walls. After 24 hours of the (T1) trial for long-term memory test, the same rats were placed in the same arena as they were placed in T1 trial. Choice phase (T2) rats were allowed to explore the open field for 3 minutes in presence of one familiar object (a3) and one novel object (b) (Amber color glass bottle, 12 cm high and 5 cm in diameter). Familiar objects presented similar textures, colors and sizes. During the T1 and T2 trial, explorations of each object (defined as sniffing, licking, chewing or having moving vibrissae whilst directing the nose towards the object at a distance of less than 1 cm) were recorded separately by stopwatch. Sitting on an object was not regarded as exploratory activity, however, it was rarely observed.
T1 is the total time spent exploring the familiar objects (a1+a2).
T2 is the total time spent exploring the familiar object and novel object (a3+b).
The object recognition test was performed as described by Ennaceur, A., Delacour, J., 1988, A new one-trial test for neurobiological studies of memory in rats—Behavioural data, Behav. Brain Res., 31, 47-59.

Male Sprague Dawley rats = test: DRL-72s model of animal depression; type: in vivo; settings: p.o.; rat
Procedure: The antidepressant properties of compounds of this invention were evaluated using a model of animal depression: the DRL-72s model. Male Sprague Dawley rats were used as experimental animals. Rats are trained to lever press for a 4″ access to 0.025 ml of water for each correct response during daily 60 minute sessions. All testing takes place on weekdays only. At the beginning of each session, the house light is illuminated and remains lit until the session ends. No other stimuli are presented during testing. After successful lever press training, rats are then required to respond under a DRL-24 second schedule, where only lever presses that are separated by 24 seconds are reinforced. Upon stable responding on a DRL-24 second schedule (5-10 sessions), rats are trained on a DRL-72 second schedule until responding stabilizes at approximately 15% efficiency (approx 25-35 sessions). Specifically, rats receive a reinforcer for each response that is emitted at least 72 seconds after the previous response (IRT). […] Efficiency is recorded as number of reinforced responses÷total number of responses. After stable baseline responding is achieved, defined as responding for 4 consecutive sessions with no more than 10% variability, animals begin drug testing. Animals receive drug no more than 1× per week.

Male Wister rats [4] = test: Reversal of formalin induced nociception; type: in vivo; settings: p.o.; rat
Procedure: Reversal of Formalin Induced Nociception
The anti-nociceptive properties of compounds of this invention were evaluated using a model of pain: the Formalin Induced Nociception model. Male Wister rats (230-280 grams) obtained from N. I. N. (National Institute of Nutrition, Hyderabad, India) was used as experimental animals.
Rats were habituated for 20 minutes in the arena before the experiment was started. Duration of licks, bites and flinches were noted from 0-10 minutes and 20-35 minutes after administration of formalin, subplantar into the right hind paw at concentrations of 5% v/v. 50 μL of water for injection was injected into the right hind paw of the rats of the sham group. Compounds of this invention were administered orally prior to formalin administration.

in vivo = settings: male, Wistar, rat, po, 5 mg/kg
Procedure: Rodent Brain Penetration Study
Three animals were housed in each cage. Animals were given water and food ad libitum throughout the experiment, and maintained on a 12 hours light/dark cycle.
NCE compound was dissolved in water and administered orally. At Tmax (0.5, 1.0 and 2.0) animals were sacrificed to collect the plasma and brain tissue and were homogenized. Plasma and Brain was stored frozen at −20° C. until analysis. The concentrations of the NCE compound in plasma and Brain were determined using LC-MS/MS method.
The NCE compounds were quantified in plasma and brain homogenate by validated LC-MS/MS method using solid phase extraction technique. NCE compounds were quantified in the calibration range of 1-500 ng/mL in plasma and brain homogenate. Study samples were analyzed using calibration samples in the batch and quality control samples spread across the batch. Extents of brain-blood ratio were calculated (Cb/Cp).

SMILES: NCC1CC2CC2N1c1cncc(Cl)c1.O=C(O)/C=C/C(=O)O (stereo not shown) [Example 13, [2-(5-Chloropyridin-3-yl)-2-aza-bicyclo[3.1.0]hex-3-yl]methylamine fumarate]
- Ki [1]: 3.5 nM
- bioavailability ([2]; 5 mg/kg Per-Oral vs 5 mg/kg Intravenous): 89 ± 18%
- AUC(0-t) ([2]; Intravenous): 1760 ± 228 ng·h/mL
- Cmax ([2]; Intravenous): 836 ± 239 ng/mL
- Tmax ([2]; Intravenous): 4.8 min
- half-life ([2]; Intravenous): 85.8 ± 6.6 min
- AUC(0-t) ([2]; Per-Oral): 1540 ± 165 ng·h/mL
- Cmax ([2]; Per-Oral): 753 ± 277 ng/mL
- Tmax ([2]; Per-Oral): 22.8 ± 8.4 min
- half-life ([2]; Per-Oral): 105 ± 24 min
- Inference (Male Wister rats [3]): Active
- Exploration time mean ± S.E.M, Familiar object (Male Wister rats [3]; choice trial): 7.32 ± 1.04 s
- Exploration time mean ± S.E.M, Novel object (Male Wister rats [3]; choice trial): 22.77 ± 2.12 s
- Dose (DRL-72s) (Male Sprague Dawley rats): ≧10 mg/kg, p.o.
- Dose (reversal of formalin induced nociception) (Male Wister rats [4]): ≧30 mg/kg, p.o.
- Kp (in vivo): 10.8 ± 1.29

Source: patent publication US8653071B2, “α4β2 neuronal nicotinic acetylcholine receptor ligands” (Suven Life Sciences Limited, priority 2009, dated 2014)
